Test results from patent publication US4130709A, “Pleuromutilin glycoside derivatives” (Eli Lilly and Company, priority 1977, dated 1978).
Values after ≈ are worked out from the molar mass of the structure shown. Like-named read-outs stand apart in the source and are kept apart here.

How the values were obtained:
[1] = system: Staphylococcus aureus (H-Heatley) NRRL B-314; assay: in vitro turbidometric assay (Autoturb Microbiological Assay System) against Staphylococcus aureus; assay type: cell-based; conditions: nutrient broth pH 7, approximately 4 hours at 37° C., A-40104 factor A as standard
Procedure, shortened: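 S. aureus H-Heatley NRRL B-314 grown in nutrient broth (pH 7), about 4 h at 37° C, with turbidity read on the Autoturb system. Compounds were dissolved in water and diluted to roughly 2.5–5.0 mcg activity/ml. Activity units were set against an A-40104 factor A standard curve (1.25–6.25 mcg/ml).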

[2] = toxicity (LD50) on intraperitoneal injection in mice; conditions: mouse, in vivo, ip
[3] = system: Staphylococcus aureus 3055; assay: in vivo antimicrobial activity, experimental infection in mice, Staphylococcus aureus 3055; conditions: two doses, read-out: ED50 × 2
Method: (§1) Typical compounds of the present invention have shown in vivo antimicrobial activity against experimental bacterial infections. When two doses of these compounds were administered to mice in illustrative infections, the activity observed was measured as an ED50 value [effective dose in mg/kg to protect 50% of the test animals; see Warren Wick, et al., J. Bacteriol. 81, 233-235 (1961)].

[4] = system: Streptococcus pyrogenes C203; assay: in vivo antimicrobial activity, experimental infection in mice, Streptococcus pyrogenes C203; conditions: sc, two doses, read-out: ED50 × 2
Method: as §1

[5] = system: Streptococcus pneumoniae Park I; assay: in vivo antimicrobial activity, experimental infection in mice, Streptococcus pneumoniae Park I; conditions: sc, read-out: ED50 × 2
Method: as §1

[6] = system: Streptococcus pneumoniae B1492; assay: in vivo antimicrobial activity, experimental infection in mice, Streptococcus pneumoniae B1492; conditions: sc, two doses, infecting challenge 340 × LD50 (ip), read-out: ED50 × 2
Method: as §1

[7] = system: Actinomyces israelii; assay: standard agar-dilution test, anaerobic bacteria; assay type: cell-based; conditions: 24-hour incubation
[8] = system: Clostridium perfringens; assay: microbe, parasite or virus in culture; assay type: cell-based; conditions: 24 h
[9] = system: Bacteroides thetaiotaomicron; assay: standard agar-dilution test, anaerobic bacteria; assay type: cell-based; conditions: 24-hour incubation
Method: (§2) Table IV summarizes the activity of typical compounds of this invention, as determined by the standard agar-dilution test.
(§3) *Endpoint read after 24-hour incubation

[10] = system: Clostridium septicum; assay: standard agar-dilution test, anaerobic bacteria; assay type: cell-based; conditions: 24-hour incubation
Method: as §2, §3

[11] = system: Eubacterium aerofaciens; assay: standard agar-dilution test, anaerobic bacteria; assay type: cell-based; conditions: Collinsella aerofaciens; Eubacterium aerofaciens; 24-hour incubation; read-out: MIC
[12] = system: Peptococcus asaccharolyticus; assay: standard agar-dilution test, anaerobic bacteria; assay type: cell-based; conditions: Peptoniphilus asaccharolyticus, 24-hour incubation
[13] = system: Peptococcus prevoti; assay: standard agar-dilution test, anaerobic bacteria; assay type: cell-based; conditions: Peptococcus prevoti; 24-hour incubation; read-out: MIC
[14] = system: Peptostreptococcus anaerobius; assay: standard agar-dilution test, anaerobic bacteria; assay type: cell-based; conditions: 24-hour incubation
[15] = system: Peptostreptococcus intermedius; assay: standard agar-dilution test, anaerobic bacteria; assay type: cell-based; conditions: Peptostreptococcus intermedius; 24-hour incubation; read-out: MIC
[16] = system: Bacteroides fragilis 111; assay: standard agar-dilution test, anaerobic bacteria; assay type: cell-based; conditions: Bacteroides fragilis 111; 24-hour incubation; read-out: MIC
[17] = system: Bacteroides fragilis 1877; assay: standard agar-dilution test, anaerobic bacteria; assay type: cell-based; conditions: Bacteroides fragilis 1877; 24-hour incubation; read-out: MIC
[18] = system: Bacteroides fragilis 1936B; assay: standard agar-dilution test, anaerobic bacteria; assay type: cell-based; conditions: Bacteroides fragilis 1936B; 24-hour incubation; read-out: MIC
[19] = system: Bacteroides melaninogenicus 1856/28; assay: standard agar-dilution test, anaerobic bacteria; assay type: cell-based; conditions: Prevotella intermedia; Bacteroides melaninogenicus 1856/28; 24-hour incubation; read-out: MIC
[20] = system: Bacteroides melaninogenicus 2736; assay: standard agar-dilution test, anaerobic bacteria; assay type: cell-based; conditions: Bacteroides melaninogenicus 2736; 24-hour incubation; read-out: MIC
[21] = system: Bacteroides vulgatis; assay: standard agar-dilution test, anaerobic bacteria; assay type: cell-based; conditions: Bacteroides vulgatis; 24-hour incubation; read-out: MIC
[22] = system: Bacteroides corrodens; assay: standard agar-dilution test, anaerobic bacteria; assay type: cell-based; conditions: Eikenella corrodens; Bacteroides corrodens; 24-hour incubation; read-out: MIC
[23] = system: Fusobacterium symbiosum; assay: standard agar-dilution test, anaerobic bacteria; assay type: cell-based; conditions: Fusobacterium symbiosum; 24-hour incubation; read-out: MIC
[24] = system: Fusobacterium necrophorum; assay: standard agar-dilution test, anaerobic bacteria; assay type: cell-based; conditions: 24-hour incubation, read-out: MIC
[25] = system: Mycoplasma gallisepticum; assay: in vitro broth-dilution studies, mycoplasma; assay type: cell-based; conditions: Mycoplasmoides gallisepticum
From the text: (§4) The minimal inhibitory concentrations (MIC's) of a number of typical compounds of the present invention (R^2 =H in group tested) against various mycoplasma species, as determined by in vitro broth-dilution studies, are summarized in Table V.

[26] = system: Mycoplasma hyopneumoniae; assay: in vitro broth-dilution studies, mycoplasma; assay type: cell-based; conditions: Mesomycoplasma hyopneumoniae
From the text: as §4

[27] = system: Mycoplasma hyorhinis; assay: in vitro broth-dilution studies, mycoplasma; assay type: cell-based
From the text: as §4

[28] = system: Mycoplasma synoviae; assay: in vitro broth-dilution studies, mycoplasma; assay type: cell-based; conditions: Mycoplasmopsis synoviae
From the text: as §4

[29] = system: Pasteurella hemolytica; assay: in vitro tests against Pasteurella hemolytica; assay type: cell-based
[30] = system: Pasteurella multocida (bovine); assay: in vitro activity against Pasteurella multocida (bovine); assay type: cell-based
From the text: (§5) The activity of representative compounds of this invention (R^2 =H in group tested) against P. multocida and the Pseudomonas sp. is summarized in Table VI.

[31] = system: Pasteurella multocida (turkey); assay: in vitro activity against Pasteurella multocida (turkey); assay type: cell-based
From the text: as §5

[32] = system: Pseudomonas sp. (fish); assay: in vitro activity against Pseudomonas sp. (fish); assay type: cell-based
From the text: P. multocida, for example, is a causative agent of respiratory infection in cattle, poultry and swine. P. hemolytica is a major cause of respiratory disease in cattle. The activity of representative compounds of this invention (R^2 =H in group tested) against P. multocida and the Pseudomonas sp. is summarized in Table VI.

[33] = system: Spiroplasma citri; assay: in vitro inhibition of Spiroplasma citri measured by a color reaction; assay type: cell-based; parameters: key to Activity (color reaction): Red (R) includes complete inhibition; red-orange (RO) indicates partial inhibition; yellow (Y) indicates no inhibition
Method: In another important aspect, the compounds of this invention are active against Spiroplasmas. Spiroplasma citri is the causative agent of citrus-stubborn disease; another Spiroplasma, corn-stunt Spiroplasma, affects the growth of corn. Table VII summarizes the in vitro activity of representative compounds of the present invention (R^2 =H in this group) against Spiroplasma citri. In this test, inhibition of S. citri is measured by a color reaction. Red (R) includes complete inhibition; red-orange (RO) indicates partial inhibition; and yellow (Y) indicates no inhibition.

[34] = system: Treponema hyodysenteriae; assay: in vitro agar plate test against Treponema hyodysenteriae; conditions: four days anaerobic
[35] = system: Streptococcus pneumoniae B1343; assay: in vivo antimicrobial activity, experimental infection in mice, Streptococcus pneumoniae B1343; conditions: sc, two doses, infecting challenge 30 × LD50 (ip), read-out: ED50 × 2
Method: as §1

[36] = system: swine dysentery; conditions: cited from earlier work
[37] = Staphylococcus aureus, 3055, po, oral, infecting challenge 500 × LD50 (ip)
[38] = Staphylococcus aureus, 3055, po, oral, infecting challenge 3400 × LD50 (ip)

## C=C[C@]1(C)C[C@@H](OC(=O)CS[C@@H]2OC[C@@H](O)[C@H](O)[C@H]2O)[C@]2(C)[C@H](C)CC[C@]3(CCC(=O)[C@H]32)[C@@H](C)[C@@H]1O [Compound 2]
[1]
  Units of Activity: 995 to 1003 µg/mg
[2]
  LD50: > 1500 mg/kg
[3]; [37]
  ED50: 32.4 mg/kg
[3]; [38]
  ED50: 44 mg/kg
[3]; Staphylococcus aureus, 3055, sc, sc, infecting challenge 82 × LD50 (ip)
  ED50: 1.85 mg/kg
[4]; infecting challenge 370 × LD50 (ip)
  ED50: 11.4 mg/kg
[5]
  ED50: 65 mg/kg
[6]
  ED50: 15.3 mg/kg
[7]
  MIC: ≤ 0.5 µg/mL
[8]
  MIC: 2 µg/mL (≈ 3.8 µM)
[9]
  MIC: 1 µg/mL (≈ 1.9 µM)
[10]
  MIC: 2 µg/mL (≈ 3.8 µM)
[11]
  MIC: 1 µg/mL (≈ 1.9 µM)
[12]
  MIC: ≤ 0.5 µg/mL
[13]
  MIC: ≤ 0.5 µg/mL
[14]
  MIC: ≤ 0.5 µg/mL
[15]
  MIC: ≤ 0.5 µg/mL
[16]
  MIC: 1 µg/mL (≈ 1.9 µM)
[17]
  MIC: 1 µg/mL (≈ 1.9 µM)
[18]
  MIC: 1 µg/mL (≈ 1.9 µM)
[19]
  MIC: > 128 µg/mL
[20]
  MIC: 1 µg/mL (≈ 1.9 µM)
[21]
  MIC: 1 µg/mL (≈ 1.9 µM)
[22]
  MIC: 1 µg/mL (≈ 1.9 µM)
[23]
  MIC: 2 µg/mL (≈ 3.8 µM)
[24]
  MIC: ≤ 0.5 µg/mL
[25]
  MIC: 0.78 µg/mL (≈ 1.48 µM)
[26]
  MIC: ≤ 0.15 µg/mL
[27]
  MIC: 0.39 µg/mL (≈ 0.74 µM)
[28]
  MIC: 0.78 µg/mL (≈ 1.48 µM)
[29]
  MIC: 12.5 µg/mL (≈ 23.7 µM)
[30]
  MIC: 3.12 µg/mL (≈ 5.92 µM)
[31]
  MIC: 6.25 µg/mL (≈ 11.9 µM)
[32]
  MIC: 6.25 µg/mL (≈ 11.9 µM)
[33]; 0.01 ppm
  Activity (color reaction): RO,RO
[33]; 0.05 ppm
  Activity (color reaction): --,R
[33]; 0.1 ppm
  Activity (color reaction): R,R
[33]; 1.0 ppm
  Activity (color reaction): R,R
[34]; 0.5 mcg/ml agar concentration
  inhibition of growth: inhibited growth
[34]; 5.0 mcg/ml agar concentration
  inhibition of growth: inhibited growth
[34]; 50 mcg/ml agar concentration
  inhibition of growth: inhibited growth

## CC[C@]1(C)C[C@@H](OC(=O)CS[C@@H]2OC[C@@H](O)[C@H](O)[C@H]2O)[C@]2(C)[C@H](C)CC[C@]3(CCC(=O)[C@H]32)[C@@H](C)[C@@H]1O [Compound 3]
[1]
  Units of Activity: 1150 to 1243 µg/mg
[3]; [37]
  ED50: 21 mg/kg
[3]; [38]
  ED50: 29 mg/kg
[3]; Staphylococcus aureus, 3055, sc, sc, infecting challenge 400 × LD50 (ip)
  ED50: 1.6 mg/kg
[4]; infecting challenge 500 × LD50 (ip)
  ED50: 7 mg/kg
[5]
  ED50: 58.5 mg/kg
[35]
  ED50: 16.3 mg/kg
[6]
  ED50: 13.2 mg/kg
[7]
  MIC: 0.5 µg/mL (≈ 0.946 µM)
[8]
  MIC: 2 µg/mL (≈ 3.78 µM)
[9]
  MIC: 0.5 µg/mL (≈ 0.946 µM)
[10]
  MIC: 1 µg/mL (≈ 1.89 µM)
[11]
  MIC: 0.5 µg/mL (≈ 0.946 µM)
[12]
  MIC: 0.5 µg/mL (≈ 0.946 µM)
[13]
  MIC: ≤ 0.125 µg/mL
[14]
  MIC: ≤ 0.125 µg/mL
[15]
  MIC: 0.5 µg/mL (≈ 0.946 µM)
[16]
  MIC: 2 µg/mL (≈ 3.78 µM)
[17]
  MIC: 1 µg/mL (≈ 1.89 µM)
[18]
  MIC: 1 µg/mL (≈ 1.89 µM)
[19]
  MIC: 0.25 µg/mL (≈ 0.473 µM)
[20]
  MIC: 0.5 µg/mL (≈ 0.946 µM)
[21]
  MIC: 1 µg/mL (≈ 1.89 µM)
[22]
  MIC: 1 µg/mL (≈ 1.89 µM)
[23]
  MIC: 1 µg/mL (≈ 1.89 µM)
[24]
  MIC: 1 µg/mL (≈ 1.89 µM)
[25]
  MIC: 0.39 µg/mL (≈ 0.738 µM)
[26]
  MIC: ≤ 0.15 µg/mL
[27]
  MIC: 0.39 µg/mL (≈ 0.738 µM)
[28]
  MIC: 0.39 µg/mL (≈ 0.738 µM)
[30]
  MIC: 6.25 µg/mL (≈ 11.8 µM)
[31]
  MIC: 6.25 µg/mL (≈ 11.8 µM)
[32]
  MIC: 12.5 µg/mL (≈ 23.6 µM)
[33]; 0.01 ppm
  Activity (color reaction): R
[33]; 0.05 ppm
  Activity (color reaction): R
[33]; 0.1 ppm
  Activity (color reaction): R
[33]; 1.0 ppm
  Activity (color reaction): R

## C=C[C@]1(C)C[C@@H](OC(=O)CO)[C@]2(C)[C@H](C)CC[C@]3(CCC(=O)[C@H]32)[C@@H](C)[C@@H]1O [pleuromutilin]
[36]
  effectiveness in the treatment of swine dysentery (in words): effective in the treatment of swine dysentery
